Test results as given in patent US6875760B2 (Novo Nordisk A/S, priority 1999, dated 2005).
pIC50: −log10 of the molar value. Read-outs that look alike come from different tables or passages of the source.

Molecular target: T1, human glucagon receptor (Homo sapiens, UniProt P47871)
T1 construct: expressed in transfected cells; host or cells: BHK (baby hamster kidney) cells
Test: Glucagon Binding Assay (III)
Method in brief: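 Non-specific binding was set with 500 nM glucagon in this SPA-type binding assay using WGA beads. The receptor source was a membrane preparation, kept on ice or at 4 °C, from BHK cells transfected with the human receptor. Scintillation counts were taken after 4 hours of shaking and 8–48 hours of settling.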

[1] = BHK cell membranes, WGA SPA beads, 125I-glucagon, read-out: Glu Bd Assay (III) IC50

T1 sequence (P47871 26-477): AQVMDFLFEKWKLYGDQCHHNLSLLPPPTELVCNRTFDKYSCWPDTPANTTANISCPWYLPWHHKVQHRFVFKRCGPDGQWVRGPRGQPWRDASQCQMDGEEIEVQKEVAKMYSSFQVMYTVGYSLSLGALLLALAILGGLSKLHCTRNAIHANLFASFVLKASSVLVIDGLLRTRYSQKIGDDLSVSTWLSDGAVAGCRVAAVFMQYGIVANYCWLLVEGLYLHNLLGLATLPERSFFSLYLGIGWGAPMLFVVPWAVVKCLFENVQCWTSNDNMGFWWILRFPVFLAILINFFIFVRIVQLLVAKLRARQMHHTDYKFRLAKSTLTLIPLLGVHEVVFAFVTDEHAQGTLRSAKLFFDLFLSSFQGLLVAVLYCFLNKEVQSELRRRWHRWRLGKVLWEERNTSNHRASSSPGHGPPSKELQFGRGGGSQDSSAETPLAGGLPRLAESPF

`CC(C)(C)c1ccc(N(Cc2ccc(C(=O)Nc3nn[nH]n3)cc2)C(=O)Nc2cccc(C#N)c2)cc1` [Example 295, 4-[1-(4-tert-Butylphenyl)-3-(3-cyanophenyl)ureidomethyl]-N-(2H-tetrazol-5-yl)benzamide] was tested. Which pIC50 [1] did it give?
Its pIC50 is 6.55.

With `CC(C)(C)c1ccc(N(Cc2ccc(C(=O)Nc3nn[nH]n3)cc2)C(=O)Nc2cccc(Cl)c2)cc1` [Example 296, 4-[1-(4-tert-Butylphenyl)-3-(3-chlorophenyl)ureidomethyl]-N-(2H-tetrazol-5-yl)benzamide] as the molecule, how does the pIC50 [1] read?
Its pIC50 is 6.52.

With `CC(=O)c1cccc(NC(=O)N(Cc2ccc(C(=O)Nc3nn[nH]n3)cc2)c2ccc(C(C)(C)C)cc2)c1` [Example 297, 4-[3-(3-Acetylphenyl)-1-(4-tert-butylphenyl)ureidomethyl]-N-(2H-tetrazol-5-yl)benzamide] as the molecule, how does the pIC50 [1] read?
The pIC50 was 7.06.

With `CSc1ccc(NC(=O)N(Cc2ccc(C(=O)Nc3nn[nH]n3)cc2)c2ccc(C3CCCCC3)cc2)cc1` [Example 298, 4-[1-(4-Cyclohexylphenyl)-3-(4-methylsulfanylphenyl)ureidomethyl]-N-(2H-tetrazol-5-yl)benzamide] as the molecule, how does the pIC50 [1] read?
Its pIC50 is 7.42.

How did the pIC50 [1] turn out when `O=C(Nc1nn[nH]n1)c1ccc(CN(C(=O)Nc2cccc(SCC3CC3)c2)c2ccc(C3CCCCC3)cc2)cc1` [Example 299, 4-[1-(4-Cyclohexylphenyl)-3-(3-cyclopropylmethylsulfanylphenyl)ureidomethyl]-N-(2H-tetrazol-5-yl)benzamide] was run?
Its pIC50 is 6.77.

With `O=C(Nc1nn[nH]n1)c1ccc(CN(C(=O)Nc2cccc(SC3CCCC3)c2)c2ccc(C3CCCCC3)cc2)cc1` [Example 300, 4-[1-(4-Cyclohexylphenyl)-3-(3-cyclopentylsulfanylphenyl)ureidomethyl]-N-(2H-tetrazol-5-yl)benzamide] as the molecule, how does the pIC50 [1] read?
Its pIC50 is 6.71.

`O=C(Nc1nn[nH]n1)c1ccc(CN(C(=O)Nc2ccc(SC(F)(F)F)cc2)c2ccc(C3CCCCC3)cc2)cc1` [Example 301, 4-[1-(4-Cyclohexylphenyl)-3-(4-trifluoromethylsulfanylphenyl)ureidomethyl]-N-(2H-tetrazol-5-yl)benzamide] was tested. Which pIC50 [1] did it give?
Its pIC50 is 7.46.

With `CSc1cccc(NC(=O)N(Cc2ccc(C(=O)Nc3nn[nH]n3)cc2)c2ccc(C3CCCCC3)cc2)c1` [Example 302, 4-[1-(4-Cyclohexylphenyl)-3-(3-methylsulfanylphenyl)ureidomethyl]-N-(2H-tetrazol-5-yl)benzamide] as the molecule, how does the pIC50 [1] read?
The pIC50 was 7.21.

With `O=C(Nc1nn[nH]n1)c1ccc(CN(C(=O)Nc2cccc(S(=O)(=O)C(F)(F)F)c2)c2ccc(C3CCCCC3)cc2)cc1` [Example 303, 4-[1-(4-Cyclohexylphenyl)-3-(3-trifluoromethylsulfonylphenyl)ureidomethyl]-N-(2H-tetrazol-5-yl)benzamide] as the molecule, how does the pIC50 [1] read?
The pIC50 was 7.28.

With `O=C(Nc1nn[nH]n1)c1ccc(CN(C(=O)Nc2cc(Cl)cc(Cl)c2)c2ccc(C3CCCCC3)cc2)cc1` [Example 304, 4-[1-(4-Cyclohexylphenyl)-3-(3,5-dichlorophenyl)ureidomethyl]-N-(2H-tetrazol-5-yl)benzamide] as the molecule, how does the pIC50 [1] read?
Its pIC50 is 7.35.

How did the pIC50 [1] turn out when `Cc1ccc(NC(=O)N(Cc2ccc(C(=O)Nc3nn[nH]n3)cc2)c2ccc(C3CCCCC3)cc2)cc1S(C)(=O)=O` [Example 305, 4-[1-(4-Cyclohexylphenyl)-3-(3-methylsulfonyl-4-methylphenyl)ureidomethyl]-N-(2H-tetrazol-5-yl)benzamide] was run?
The pIC50 was 7.26.

With `CC(O)c1cccc(NC(=O)N(Cc2ccc(C(=O)Nc3nn[nH]n3)cc2)c2ccc(C3CCCCC3)cc2)c1` (centres unmarked) [Example 306, 4-{1-(4-Cyclohexylphenyl)-3-[3-(1-hydroxyethyl)phenyl]ureidomethyl}-N-(2H-tetrazol-5-yl)benzamide] as the molecule, how does the pIC50 [1] read?
The pIC50 was 6.68.

With `O=C(Nc1nn[nH]n1)c1ccc(CN(C(=O)Nc2ccc(OC(F)(F)F)cc2)c2ccc(C3=CCCCC3)cc2)cc1` [Example 307, 4-[1-(4-Cyclohex-1-enylphenyl)-3-(4-trifluoromethoxyphenyl)ureidomethyl]-N-(2H-tetrazol-5-yl)benzamide] as the molecule, how does the pIC50 [1] read?
The pIC50 was 7.30.

`O=C(Nc1nn[nH]n1)c1ccc(CN(C(=O)Nc2cccc([N+](=O)[O-])c2)c2ccc(C3=CCCCC3)cc2)cc1` [Example 308, 4-[1-(4-Cyclohex-1-enylphenyl)-3-(3-nitrophenyl)ureidomethyl]-N-(2H-tetrazol-5-yl)benzamide] was tested. Which pIC50 [1] did it give?
The pIC50 was 7.21.

How did the pIC50 [1] turn out when `CC(O)c1cccc(NC(=O)N(Cc2ccc(C(=O)Nc3nn[nH]n3)cc2)c2ccc(C(C)(C)C)cc2)c1` (centres unmarked) [Example 309, 4-{1-(4-tert-Butylphenyl)-3-[3-(1-hydroxyethyl)phenyl]ureidomethyl}-N-(2H-tetrazol-5-yl)benzamide] was run?
The pIC50 was 6.25.

With `CS(=O)(=O)c1cccc(NC(=O)N(Cc2ccc(C(=O)Nc3nn[nH]n3)cc2)c2ccc(C3=CCCCC3)cc2)c1` [Example 310, 4-[1-(4-Cyclohex-1-enylphenyl)-3-(3-methylsulfonylphenyl)ureidomethyl]-N-(2H-tetrazol-5-yl)benzamide] as the molecule, how does the pIC50 [1] read?
The pIC50 was 7.21.

How did the pIC50 [1] turn out when `CC(C)(C)[Si](C)(C)OCc1cc(NC(=O)N(Cc2ccc(C(=O)Nc3nn[nH]n3)cc2)c2ccc(C3CCCCC3)cc2)ccc1OC(F)(F)F` [Example 311, 4-[3-[3-(tert-Butyldimethylsilanyloxymethyl)-4-trifluoromethoxyphenyl]-1-(4-cyclohexylphenyl)ureidomethyl]-N-(2H-tetrazol-5-yl)benzamide] was run?
Its pIC50 is 7.49.

How did the pIC50 [1] turn out when `CC(C)(C)c1ccc(N(Cc2ccc(C(=O)Nc3nn[nH]n3)cc2)C(=O)Nc2ccc(OC(F)(F)F)c(S(C)(=O)=O)c2)cc1` [Example 312, 4-[1-(4-tert-Butylphenyl)-3-(3-methylsulfonyl-4-trifluoromethoxyphenyl)ureidomethyl]-N-(2H-tetrazol-5-yl)benzamide] was run?
The pIC50 was 7.34.

How did the pIC50 [1] turn out when `CC(C)(C)C1CCC(N(Cc2ccc(C(=O)Nc3nn[nH]n3)cc2)C(=O)Nc2ccc(OC(F)(F)F)c(S(C)(=O)=O)c2)CC1` (centres unmarked) [Example 313, 4-[1-(4-tert-Butylcyclohexyl)-3-(3-methylsulfonyl-4-trifluoromethoxyphenyl)ureidomethyl]-N-(2H-tetrazol-5-yl)benzamide] was run?
The pIC50 was 7.74.

With `CS(=O)(=O)c1cc(NC(=O)N(Cc2ccc(C(=O)Nc3nn[nH]n3)cc2)c2ccc(C3CCCCC3)cc2)ccc1OC(F)(F)F` [Example 314, 4-[1-(4-Cyclohexylphenyl)-3-(3-methylsulfonyl-4-trifluoromethoxyphenyl)ureidomethyl]-N-(2H-tetrazol-5-yl)benzamide] as the molecule, how does the pIC50 [1] read?
Its pIC50 is 7.21.

How did the pIC50 (value printed in the text of Example 315, read-out: Glu bd assay III) turn out when `CS(=O)(=O)c1cc(NC(=O)N(Cc2ccc(C(=O)Nc3nn[nH]n3)cc2)c2ccc(C3=CCCCC3)cc2)ccc1OC(F)(F)F` [Example 315, 4-[1-(4-Cyclohex-1-enylphenyl)-3-(3-methylsulfonyl-4-trifluoromethoxyphenyl)ureidomethyl]-N-(2H-tetrazol-5-yl)benzamide] was run?
The pIC50 was 7.66.

How did the pIC50 [1] turn out when `O=C(Nc1nn[nH]n1)c1ccc(CN(C(=O)Nc2cc(Cl)cc(Cl)c2)c2ccc(N3CCCCC3)cc2)cc1` [Example 316, 4-[3-(3,5-Dichlorophenyl)-1-(4-piperidin-1-ylphenyl)ureidomethyl]-N-(2H-tetrazol-5-yl)benzamide] was run?
The pIC50 was 6.26.

How did the pIC50 [1] turn out when `CSc1cccc(NC(=O)N(Cc2ccc(C(=O)Nc3nn[nH]n3)cc2)c2ccc(N3CCCCC3)cc2)c1` [Example 317, 4-[3-(3-Methylsulfanylphenyl)-1-(4-piperidin-1-ylphenyl)ureidomethyl]-N-(2H-tetrazol-5-yl)benzamide] was run?
Its pIC50 is 6.10.

How did the pIC50 [1] turn out when `O=C(Nc1nn[nH]n1)c1ccc(CN(C(=O)Nc2ccc(OC(F)(F)F)cc2)c2ccc(N3CCCCC3)cc2)cc1` [Example 318, 4-[1-(4-Piperidin-1-ylphenyl)-3-(4-trifluoromethoxyphenyl)ureidomethyl]-N-(2H-tetrazol-5-yl)benzamide] was run?
Its pIC50 is 6.61.

How did the pIC50 [1] turn out when `COc1cc(NC(=O)N(Cc2ccc(C(=O)Nc3nn[nH]n3)cc2)c2ccc(C3CCCCC3)cc2)cc(C(F)(F)F)c1` [Example 319, 4-[1-(4-Cyclohexylphenyl)-3-(3-methoxy-5-trifluoromethylphenyl)ureidomethyl]-N-(2H-tetrazol-5-yl)benzamide] was run?
Its pIC50 is 7.74.

`CS(=O)(=O)c1ccc(NC(=O)N(Cc2ccc(C(=O)Nc3nn[nH]n3)cc2)c2ccc(C3CCCCC3)cc2)s1` [Example 320, 4-[1-(4-Cyclohexylphenyl)-3-(5-methylsulfonylthiophen-2-yl)ureidomethyl]-N-(2H-tetrazol-5-yl)benzamide] was tested. Which pIC50 [1] did it give?
Its pIC50 is 7.55.

`CS(=O)(=O)c1cc(NC(=O)N(Cc2ccc(C(=O)Nc3nn[nH]n3)cc2)c2ccc(C3CCCCC3)cc2)cc(S(C)(=O)=O)c1` [Example 321, 4-[3-(3,5-Bis(methylsulfonyl)phenyl)-1-(4-cyclohexylphenyl)ureidomethyl]-N-(2H-tetrazol-5-yl)benzamide] was tested. Which pIC50 [1] did it give?
The pIC50 was 6.02.

With `CN(c1ccccc1)S(=O)(=O)c1cccc(NC(=O)N(Cc2ccc(C(=O)NCCC(=O)O)cc2)c2ccc(C3CCCCC3)cc2)c1` [Example 322, 3-(4-{1-(4-cyclohexylphenyl)-3-[3-(methylphenylsulfamoyl)phenyl]ureidomethyl}benzoylamino)propionic acid] as the molecule, how does the pIC50 [1] read?
Its pIC50 is 7.39.

`O=C(Nc1nn[nH]n1)c1ccc(CN(C(=O)NCCc2ccccc2)c2ccc(C3CCCCC3)cc2)cc1` [Example 323, 4-[1-(4-Cyclohexylphenyl)-3-phenethylureidomethyl]-N-(2H-tetrazol-5-yl)benzamide] was tested. Which pIC50 [1] did it give?
Its pIC50 is 6.99.

`CC(C)(C)C1CCC(N(Cc2ccc(C(=O)Nc3nn[nH]n3)cc2)C(=O)NCCc2ccccc2)CC1` (centres unmarked) [Example 324, 4-[1-(4-tert-Butylcyclohexyl)-3-phenethylureidomethyl]-N-(2H-tetrazol-5-yl)benzamide] was tested. Which pIC50 [1] did it give?
The pIC50 was 6.56.

`O=C(Nc1nn[nH]n1)c1ccc(CN(C(=O)Nc2ccc(Cl)c(Cl)c2)c2ccc(C3=CCCCC3)cc2)cc1` [Example 325, 4-[1-(4-Cyclohex-1-enylphenyl)-3-(3,4-dichlorophenyl)ureidomethyl]-N-(2H-tetrazol-5-yl)benzamide] was tested. Which pIC50 [1] did it give?
Its pIC50 is 7.60.

With `O=C(Nc1nn[nH]n1)c1ccc(CN(C(=O)Nc2cccc(C(F)(F)F)c2)c2ccc(C3=CCCCC3)cc2)cc1` [Example 326, 4-[1-(4-Cyclohex-1-enylphenyl)-3-(3-trifluoromethylphenyl)ureidomethyl]-N-(2H-tetrazol-5-yl)benzamide] as the molecule, how does the pIC50 [1] read?
Its pIC50 is 7.68.
